Results published in US11897904B2, “Herbicidally active bicyclic benzamides” (Bayer Aktiengesellschaft, priority 2017, dated 2024).

How the values were obtained:
ECHCG [1] = experiment: Pre-emergence herbicidal action; assay type: in vivo, Echinochloa crus-galli; conditions: 320 g/ha, scored visually after about 3 weeks vs untreated controls
From the text: (§1) 1. Pre-Emergence Herbicidal Action and Crop Plant Compatibility
(§2) Seeds of monocotyledonous and dicotyledonous weed plants and crop plants are placed in plastic or organic planting pots and covered with soil. The compounds of the invention, formulated in the form of wettable powders (WP) or as emulsion concentrates (EC), are then applied onto the surface of the covering soil as aqueous suspension or emulsion with addition of 0.5% additive at a water application rate of 600 l/ha (converted). After the treatment, the pots are placed in a greenhouse and kept under good growth conditions for the trial plants. After about 3 weeks, the effect of the preparations is scored visually in comparison with untreated controls as percentages. The tables below show the herbicidal activity of numerous compounds according to the invention against important harmful plants. For example, 100% activity=the plants have died, 0% activity=like control plants.

SETVI [2] = experiment: Pre-emergence herbicidal action; assay type: in vivo, Setaria viridis; conditions: pre-emergence, 320 g/ha, scored visually after about 3 weeks vs untreated controls
From the text: as §1, §2

ABUTH [3] = experiment: Post-emergence herbicidal action; assay type: in vivo, Abutilon theophrasti; conditions: post-emergence, 80 g/ha, rated visually after about 3 weeks vs untreated controls
Description: (§3) 2. Post-Emergence Herbicidal Action and Crop Plant Compatibility
(§4) Seeds of monocotyledonous and dicotyledonous weeds and crop plants are placed in sandy loam in plastic or organic planting pots, covered with soil and cultivated in a greenhouse under controlled growth conditions. 2 to 3 weeks after sowing, the test plants are treated at the one-leaf stage. The compounds of the invention, formulated in the form of wettable powders (WP) or as emulsion concentrates (EC), are then sprayed onto the green parts of the plants as aqueous suspension or emulsion with addition of 0.5% additive at a water application rate of […] (converted). After the test plants had been kept in the greenhouse under optimum growth conditions for about 3 weeks, the activity of the preparations is rated visually in comparison to untreated controls. The tables below show the herbicidal activity of numerous compounds according to the invention against important harmful plants. For example, 100% activity=the plants have died, 0% activity=like control plants.

VERPE [4] = experiment: Pre-emergence herbicidal action; assay type: in vivo, Veronica persica; conditions: 320 g/ha, scored visually after about 3 weeks vs untreated controls
From the text: as §1, §2

VIOTR [5] = experiment: Post-emergence herbicidal action; assay type: in vivo, Viola tricolor; conditions: 80 g/ha, rated visually after about 3 weeks vs untreated controls
Description: as §3, §4

VERPE [6] = experiment: Post-emergence herbicidal action; assay type: in vivo, Veronica persica; conditions: 80 g/ha, rated visually after about 3 weeks vs untreated controls
Description: as §3, §4

ABUTH [7] = experiment: Pre-emergence herbicidal action; assay type: in vivo, Abutilon theophrasti; conditions: pre-emergence, 320 g/ha, scored visually after about 3 weeks vs untreated controls
From the text: as §1, §2

STEME [8] = experiment: Pre-emergence herbicidal action; assay type: in vivo, Stellaria media; conditions: 320 g/ha, scored visually after about 3 weeks vs untreated controls
From the text: as §1, §2

ECHCG [9] = experiment: Post-emergence herbicidal action; assay type: in vivo, Echinochloa crus-galli; conditions: 80 g/ha, rated visually after about 3 weeks vs untreated controls
Description: as §3, §4

AMARE [10] = experiment: Pre-emergence herbicidal action; assay type: in vivo, Amaranthus retroflexus; conditions: 320 g/ha, scored visually after about 3 weeks vs untreated controls
From the text: as §1, §2

STEME [11] = experiment: Post-emergence herbicidal action; assay type: in vivo, Stellaria media; conditions: 80 g/ha, rated visually after about 3 weeks vs untreated controls
Description: as §3, §4

PHBPU = experiment: Post-emergence herbicidal action; assay type: in vivo, Ipomoea purpurea; conditions: 80 g/ha, rated visually after about 3 weeks vs untreated controls
Description: as §3, §4

SETVI [12] = experiment: Post-emergence herbicidal action; assay type: in vivo, Setaria viridis; conditions: 80 g/ha, rated visually after about 3 weeks vs untreated controls
Description: as §3, §4

MATIN [13] = experiment: Pre-emergence herbicidal action; assay type: in vivo, Matricaria inodora; conditions: pre-emergence, 320 g/ha, scored visually after about 3 weeks vs untreated controls
From the text: as §1, §2

AMARE [14] = experiment: Post-emergence herbicidal action; assay type: in vivo, Amaranthus retroflexus; conditions: 80 g/ha, rated visually after about 3 weeks vs untreated controls
Description: as §3, §4

VIOTR [15] = experiment: Pre-emergence herbicidal action; assay type: in vivo, Viola tricolor; conditions: 320 g/ha, scored visually after about 3 weeks vs untreated controls
From the text: as §1, §2

MATIN [16] = experiment: Post-emergence herbicidal action; assay type: in vivo, Matricaria inodora; conditions: 80 g/ha, rated visually after about 3 weeks vs untreated controls
Description: as §3, §4

CYPES = experiment: Pre-emergence herbicidal action; assay type: in vivo, Cyperus esculentus; conditions: dosage 320 g/ha, scored visually after about 3 weeks vs untreated controls, 100% = plants have died, 0% = like control plants
From the text: as §1, §2

SMILES | herbicidal activity ECHCG (ECHCG [1]) [%] | herbicidal activity SETVI (SETVI [2]) [%] | herbicidal activity ABUTH (ABUTH [3]) [%] | herbicidal activity VERPE (VERPE [4]) [%] | herbicidal activity VIOTR (VIOTR [5]) [%] | herbicidal activity VERPE (VERPE [6]) [%] | herbicidal activity ABUTH (ABUTH [7]) [%] | herbicidal activity STEME (STEME [8]) [%] | herbicidal activity ECHCG (ECHCG [9]) [%] | herbicidal activity AMARE (AMARE [10]) [%] | herbicidal activity STEME (STEME [11]) [%] | herbicidal activity PHBPU (PHBPU) [%] | herbicidal activity SETVI (SETVI [12]) [%] | herbicidal activity MATIN (MATIN [13]) [%] | herbicidal activity AMARE (AMARE [14]) [%] | herbicidal activity VIOTR (VIOTR [15]) [%] | herbicidal activity MATIN (MATIN [16]) [%] | herbicidal activity CYPES (CYPES) [%]
Cn1nnnc1NC(=O)c1ccc(C(F)F)c2c1OC[S+]2[O-] (stereo not drawn) [Example 2-69] | 90 | 90 | 90 | 90 | 100 | 90 | 100 | 90 | 100 | 100 | 100 | 80 | 80 | 90 | 90 | 100 | 90 | –
CC1Oc2c(C(=O)Nc3nnnn3C)ccc(C(F)(F)F)c2S1(=O)=O (stereo not drawn) [Example 2-106] | 90 | 90 | 90 | – | 100 | – | 100 | 90 | 100 | 100 | 100 | 80 | 100 | 100 | 100 | 100 | 90 | 90
CCn1nnnc1NC(=O)c1ccc(C(F)(F)F)c2c1OC[S+]2[O-] (stereo not drawn) [Example 3-67] | 100 | 80 | 80 | 100 | 100 | 100 | 90 | 100 | 100 | 100 | 100 | 100 | – | 90 | 100 | 100 | 90 | 80
CCn1nnnc1NC(=O)c1ccc(C(F)(F)F)c2c1OCS2(=O)=O [Example 3-82] | 100 | – | – | 100 | 100 | 100 | 90 | 100 | 80 | 100 | 100 | 90 | – | 100 | 100 | 100 | 100 | 90
Cn1nnnc1NC(=O)c1ccc(C(F)(F)F)c2c1OCS2(=O)=O [Example 2-83] | 100 | 100 | 90 | 100 | 100 | 90 | 100 | 100 | 90 | 100 | 100 | 90 | 90 | 90 | 100 | 100 | 100 | 100
CCn1nnnc1NC(=O)c1ccc(C(F)(F)F)c2c1OCS2 [Example 3-52] | 90 | 90 | 80 | 80 | 100 | 100 | 90 | 100 | 100 | 100 | 100 | 100 | 100 | 90 | 100 | 90 | 90 | –
Cc1ccc(C(=O)Nc2nnnn2C)c2c1[S+]([O-])CO2 (stereo not drawn) [Example 2-65] | – | – | – | 80 | – | – | – | – | – | 90 | – | – | – | – | – | – | – | 90
Cn1nnnc1NC(=O)c1ccc(C(F)(F)F)c2c1OC[S+]2[O-] (stereo not drawn) [Example 2-68, 4-(trifluoromethyl)-1,3-benzoxathiolane-N-(1-methyltetrazol-5-yl)-7-carboxamide 3-oxide] | 90 | 100 | – | 100 | 100 | 100 | 90 | 90 | 100 | 100 | 100 | 90 | 90 | 90 | 100 | 100 | 90 | 90
